Tested on: Corticium sasakii
Assay: Activity against sheath blight on rice caused by Corticium sasakii (protective spray on potted rice plants)
Type: in vivo
Settings: individual active compound, rice cultivar Tai-Nong 67, evaluated after 11 days, untreated control 90% infection
Protocol: 1% by weight of the emulsifier Uniperol® EL (wetting agent having emulsifying and dispersing action based on ethoxylated alkylphenols) was added to this solution, and the solution was diluted with water to the desired concentration.
Use example—Activity against sheath blight on rice caused by Corticium sasakii
The next day, oat grains infected with Corticium sasakii were placed into the pots (in each case 5 grains per pot). The plants were then placed in a chamber at 26° C. and maximum atmospheric humidity.
Evaluation is carried out by determining the infected leaf areas in percent. These percentages were converted into efficacies.
The efficacy (E) is calculated as follows using Abbot's formula: E=(1−α/β)·100 • α corresponds to the fungicidal infection of the treated plants in % and • β corresponds to the fungicidal infection of the untreated (control) plants in %
An efficacy of 0 means that the infection level of the treated plants corresponds to that of the untreated control plants; an efficacy of 100 means that the treated plants are not infected.

| Compound | Efficacy in % of the untreated control (4 ppm in the spray liquor) | Efficacy in % of the untreated control (1 ppm in the spray liquor) | Efficacy in % of the untreated control (16 ppm in the spray liquor) |
| --- | --- | --- | --- |
| CC1CCN(c2c(-c3c(F)cccc3Cl)c(Cl)nc3ncnn23)CC1 [A] | 0% |  |  |
| CC1CCN(c2c(-c3c(F)cc(F)cc3F)c(Cl)nc3ncnn23)CC1 [I, 5-chloro-7-(4-methylpiperidin-1-yl)-6-(2,4,6-trifluorophenyl)-[1,2,4]tri-azolo[1,5-a]pyrimidine] | 33% |  |  |
| CC(Nc1c(-c2c(F)cc(F)cc2F)c(Cl)nc2ncnn12)C(F)(F)F (centres unmarked) [B] | 67% |  |  |
| CN(C)C(=S)SSC(=S)N(C)C [II.5, bis(dimethylthiocarbamoyl)disulfide] |  | 0% | 0% |
| manganese-ethylenebis(dithiocarbamate)zinc complex [II.1] |  | 0% | 11% |
| zinc ammoniate-ethylenebis(dithiocarbamate) [II.3] |  | 0% | 22% |
| manganese-ethylenebis(dithiocarbamate) [II.2] |  | 0% | 11% |

Source: patent publication US20070082916A1, “Fungicidal mixtures for controlling rice pathogens” (BASF AKTIENGESEELSCHAFT, priority 2003, published 2007)
